For series [1], the system named is LPS activated thioglyclolate peritoneal macrophages. Briefly: Cytokines and chemokines secreted from LPS activated thioglycolate peritoneal macrophages (Legendplex panels). The class given is cell-based, mice. The following applies: for GMCSF level, percentage of untreated control cells / IL1α level, percentage of untreated control cells / IL6 level, percentage of untreated control cells / IL12p70 level, percentage of untreated control cells / IL27 level, percentage of untreated control cells / MCP1 level, percentage of untreated control cells / MIP1β level, percentage of untreated control cells / CCL5 level, percentage of untreated control cells / MDC level, percentage of untreated control cells / MIP1α level, percentage of untreated control cells: 10 μM compound, 48 h; for IC50: Mus musculus, Peritoneal macrophage, read-out: IL6 IC50. As for the experimental part: Activated peritoneal macrophages were isolated from the peritoneal lavage of C57BL/6 wild type mice, 5 days after the peritoneal administration of 3% Thioglucolate, as described in Jiménez-García et al., 2015. The isolated cells were seeded at a concentration of 5×10^5 cells/well in a 48 well plate. 4 h after isolation, cells were starved O/N in Optimem (Gibco, 11058, 100 U/ml P/S). The cells were further activated with 100 ng/ml Lipopolysaccharide (LPS, Sigma-Aldrich, L2630) along with the test compounds at a dose of 10 μM. 48 h later the supernatants of the cell cultures were collected and analyzed using the Mouse 13 plex Legendplex Chemokine (Biolegend, 740007) and Cytokine (Bioloegend, 740446) panels according the manufacturer's instructions.
The same protocol was repeated reducing the concentration of LPS to 10 ng/ml in order to determine the efficiency of the tested compounds.
In order to assess the anti-inflammatory activity of the compounds of the invention, their ability to reduce the levels of secreted cytokines and chemokines from activated macrophages, which are key inflammatory cells of the immune system, was measured. Test compounds 51, 52 and 53, E and F were tested at a dose of 10 μM on LPS induced thioglycolate derived peritoneal macrophages. Chemokine and cytokine analyses were performed using the Mouse pro-inflammatory panels from Legendplex and their levels are presented as a percentage of the levels detected in the untreated control cells (Tables 6a and 6b). Data presented for compounds 51, 52, 53 refer to LPS stimulation of 100 ng/ml, while compounds E and F were tested upon LPS stimulation of 10 ng/ml.

The subject of another series is SFs and PMCs. Briefly: Compound cytotoxicity, Crystal Violet assay. The class given is cell-based, mice. As for the experimental part:
The toxicity of the test compounds was assessed at several concentrations using the Crystal Violet assay on both SFs and PMCs. Adherent viable cells were Methanol fixed and stained with Crystal Violet. Optical density was quantified at […], as described in Feoktistova et al., 2016.

Take `COc1cc(N)c(Cl)cc1C(=O)NCC1(c2ccc(Cl)cc2)CCCCCC1` [Compound 52, 4-amino-5-chloro-N-((1-(4-chlorophenyl)cycloheptyl)methyl)-2-methoxybenzamide]: in series [1] (LPS 100 ng/ml), the “GMCSF level, percentage of untreated control cells” value (shortened to “GMCSF level, percentage”) is on record as 36%; the “IL1α level, percentage of untreated control cells” value (shortened to “IL1α level, percentage”) came to 9%; the “IL6 level, percentage of untreated control cells” value (from here on “IL6 level, percentage”) was found to be 7%; the “IL12p70 level, percentage of untreated control cells” value (“IL12p70 level, percentage” below) was 23%. In series [1] (LPS 100 ng/ml), the “IL27 level, percentage of untreated control cells” value (shortened to “IL27 level, percentage”) stood at 19%; the “MCP1 level, percentage of untreated control cells” value (from here on “MCP1 level, percentage”) was 28%; the “MIP1β level, percentage of untreated control cells” value (“MIP1β level, percentage” for short) is 51%. The “Cell Toxicity” value in the series on SFs and PMCs is >200 µM.

For the compound `COc1cc(N)c(Cl)cc1C(=O)NCC1(c2ccc(Cl)cc2)CCCCC1` [Compound 51, 4-amino-5-chloro-N-((1-(4-chlorophenyl)cyclohexyl)methyl)-2-methoxybenzamide], in series [1] (LPS 100 ng/ml), the “GMCSF level, percentage” value came out at 80%; the “IL1α level, percentage” value came out at 36%; the “IL6 level, percentage” value was determined as 44%; the “IL12p70 level, percentage” value was 54%. In series [1] (LPS 100 ng/ml), the “IL27 level, percentage” value worked out at 77%; the “MCP1 level, percentage” value was determined as 27%; the “MIP1β level, percentage” value is given as 90%. The “Cell Toxicity” value with SFs and PMCs was >100 µM.

On to `COc1cc(N)c(Cl)cc1C(=O)NCC1(Nc2ccc(Cl)cc2)CCCCCC1` [Compound 53, 4-amino-5-chloro-N-((1-((4-chlorophenyl)amino)cycloheptyl)methyl)-2-methoxybenzamide], for which, in series [1] (LPS 100 ng/ml), the “CCL5 level, percentage of untreated control cells” value (from here on “CCL5 level, percentage”) turned out to be 22%; the “GMCSF level, percentage” value is on record as 38%; the “IL1α level, percentage” value was 30%; the “IL6 level, percentage” value came out at 15%. Also, in series [1] (LPS 100 ng/ml), the “IL12p70 level, percentage” value came out at 18%; the “IL27 level, percentage” value was found to be 75%; the “MCP1 level, percentage” value is 75%; the “MDC level, percentage of untreated control cells” value (“MDC level, percentage” for short) amounted to 52%. Moreover, in series [1] (LPS 100 ng/ml), the “MIP1α level, percentage of untreated control cells” value (“MIP1α level, percentage” below) is 60% and the “MIP1β level, percentage” value is recorded as 67%. In the series with SFs and PMCs, the “Cell Toxicity” value is >100 µM.

In the case of `COc1cc(N)c(Cl)cc1C(=O)NCC1(Nc2cccc(OC(F)(F)F)c2)CCCCCC1` [F, 4-amino-5-chloro-2-methoxy-N-((1-((3-(trifluoromethoxy)phenyl)amino)cycloheptyl)methyl)benzamide], in series [1] (LPS 10 ng/ml), the “CCL5 level, percentage” value was determined as 2%; the “IL6 level, percentage” value came to 5.3%; the “MCP1 level, percentage” value worked out at 9%; the “MDC level, percentage” value turned out to be 47%. In addition, in series [1] (LPS 10 ng/ml), the “MIP1α level, percentage” value is 45%; the “MIP1β level, percentage” value stood at 26%; the IC50 (commonly the concentration at which inhibition is half-maximal) was determined as 2.67 µM. In the series with SFs and PMCs, the “Cell Toxicity” value was >25 µM.

With `COc1cc(N)c(Cl)cc1C(=O)NCC1(Nc2ccc(F)cc2Cl)CCCCCC1` [E, 4-amino-5-chloro-N-((1-((2-chloro-4-fluorophenyl)amino)cycloheptyl)methyl)-2-methoxybenzamide], in series [1] (LPS 10 ng/ml), the “CCL5 level, percentage” value came out at 8%; the “IL6 level, percentage” value was determined as 8.8%; the “MCP1 level, percentage” value came out at 9.3%; the “MDC level, percentage” value is on record as 54%. In series [1] (LPS 10 ng/ml), the “MIP1α level, percentage” value worked out at 50%; the “MIP1β level, percentage” value was 41%; the concentration for half-maximal inhibition (IC50) was 0.57 µM. Also, the “Cell Toxicity” value in the series on SFs and PMCs is >150 µM.

The values are drawn from patent US12686657B2, “Anti-inflammatory carboxamide derivatives” (BIOMEDCODE HELLAS SA, priority 2021, dated 2026).
